These results are taken from patent US6410598B1, “Compositions and methods for advanced glycosylation endproduct-mediated modulation of amyloidosis” (priority 1994, dated 2002).

Test [1] has as its target fibrillar β-amyloid peptide (Homo sapiens, UniProt P05067). As to the kind of experiment: Co-precipitation with aggregated β-amyloid peptide (supernatant absorbance spectrum after centrifugation). Type of test: binding. The method, then: A preparation of Compound 8, supra, was employed in this assay. Soluble β-amyloid peptide was allowed to aggregate in the presence of phosphate buffer, Compound 8 or dithionitrobenzene and various compounds as described in Example 1, supra. The samples containing dithionitrobenzene are controls for non-specific association of a chromophoric small molecule with precipitated β-amyloid peptide. An additional control sample was prepared containing phosphate buffer and the various compounds, but lacking β-amyloid peptide. After overnight incubation, the tubes were centrifuged at 15,000×g for 30 minutes, half of the supernatant removed and added to a cuvette, and the absorbance spectrum of the supernatant from 200 to 600 nm obtained. In the absence of an association between compound 8 and aggregated sedimentable B-amyloid components of the aggregated assay incubation, compound 8, which has an absorbance maximum at about 350 nm, will remain in the supernatant and its presence and concentration can be readily determined. Alternatively, association of Compound 8 with the precipitated β-amyloid peptide would result in decreased absorbance at 350 nm. […] In the control tubes, no decrease in the absorbance is expected, since the compound should remain soluble.

Another test deals with T1, soluble βAP (Homo sapiens, UniProt P05067).
T1 construct: Soluble βAP (400 μM βAP 1-28), 0.1 M sodium acetate in 0.1 M phosphate buffer; purchased Bachem (Torrance, Calif.); host or cells: chemical synthesis
T1 sequence (P05067 672-699): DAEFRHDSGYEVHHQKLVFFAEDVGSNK
As to the kind of experiment: Thioflavin-T fluorescence assay of βAP aggregation and seeding. Type of test: biochemical. To be noted: 400 μM βAP 1-28, 0.1 M sodium acetate pH 7.0; 100 mM glucose, 0.05 M aminoguanidine; FIG. 4.

Chain of fibrillar β-amyloid peptide (P05067 672-713 limits assumed): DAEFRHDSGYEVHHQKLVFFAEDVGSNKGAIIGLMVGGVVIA
Method for soluble βAP: Aggregation of soluble βAP 1-28 or 3AP 1-40 at different concentrations was initiated by addition of 0.1 M sodium acetate (NaOAc) at the indicated pH (between 4.7 and 7.5) and continued for the indicated times. Quantitative aggregate formation with sub-millimolar βAP concentrations was detected using the procedure of LeVine (1992, Protein Science 2:404-410). Briefly, fluorescence of aggregates added to 10 μM Thioflavin-T (Aldrich)/50 mM potassium phosphate buffer, pH 6.0, was measured upon excitation at 450±5 nm and detection of emission at 482±10 nm on a Perkin Elmer LS-50B spectrofluorimeter. Where indicated, small amounts of pre-formed aggregates or “nucleation seeds” were added to the soluble βAP and aggregation initiated with 0.1 M sodium acetate.
After incubation, protein concentrations of seed preparations were measured and adjusted with buffer to 150 μM final concentration.

`Cc1ccc2nc(-c3ccc(NCCCC[N+](C)(C)C[C@@]4(O)OC[C@@H](O)[C@@H](O)[C@@H]4O)cc3)sc2c1` [Compound 8, (4-[N-(4-[N-(1-deoxy-β-D-fructopyranos-1-yl)-N,N-dimethylammonio]butyl)amino]phenyl)-6-methylbenzothiazole chloride]: in test [1] (350 nm for Compound 8, overnight incubation, 15,000×g for 30 minutes, FIG. 7), the “absorbance of the supernatant after pelleting of fibrillar β-amyloid peptide versus before pelleting” value was “reduced”. Besides, the “association with insoluble aggregated β-amyloid peptide” value in test [1] (co-sedimentation in vitro) is on record as “specifically associates with insoluble, aggregated β-amyloid peptide deposits”.
As for `N=C(N)NN` [aminoguanidine], the “effect on fluorescent aggregate formation of soluble βAP” value on soluble βAP is listed as “can inhibit the AGE-enhanced aggregation”.
